{
  "source": "patent US20230173098A1",
  "about": "“NANOPARTICLE COMPLEX FOR ORAL ADMINISTRATION AND USES THEREOF” (IUCF-HYU (Industry-University Cooperation Foundation …, priority 2021, published 2023)",
  "key": {"[1]": {"assay": "Surface charge measurement (Zetasizer Nano ZS)", "type": "physicochemical", "settings": "mean±SEM, n=3, in mV (unit assumed)"}, "[2]": {"assay": "Hydrophobic assay (water/octanol phase transition, absorbance at 400 nm and 671 nm)", "type": "physicochemical", "settings": "dissolved in DW, octanol added"}, "[3]": {"assay": "Photobleaching of Ce6 fluorescence under PDT laser (671 nm)", "type": "physicochemical", "settings": "10 minutes PDT laser 671 nm; Ce6 equivalent 2.5 μM in ethanol", "protocol": "In this case, each sample (Ce6 equivalent concentration of 2.5 μM) was dissolved in ethanol and irradiated with a PDT laser (MRL-III-671, 671±1 nm, China) for 10 minutes, and then the photobleaching of Ce6 fluorescence (λ excitation/λ emission=400 nm/671 nm) of each sample was measured according to laser irradiation time, and the results are illustrated in FIG. 10."}, "Caco-2 cell monolayer": {"tested_on": "Caco-2 cell monolayer", "type": "in vitro ADME, human", "protocol": "Specifically, small intestine […] cells (Caco-2) were inoculated onto a Transwell insert with a diameter of 6.5 mm and a pore size of […] (seeding density: 2×10^4 cells/insert; Corning, Inc., Corning, N.Y., USA).\nAfter the Caco-2 were incubated for approximately 2 to 3 weeks in a CO2 incubator, trans epithelial electrical resistance (TEER) was measured using a voltmeter (EVOM^2; World Precision Instruments, Sarasota, Fla., USA) to confirm tight junctions. In this case, the TEER value […] was used for the assay. […] During the treatment, TEER values were measured at each designated time, and the results are illustrated in FIG. 18.\nPretreated-Lf/Ce6-AuNP-Lf was used to examine passive transport excluding lactoferrin receptor (LfR)-mediated transport.\nReferring to this, Lf pretreatment (pretreated-Lf) was performed to saturate LfR expressed in the Caco-2 cell monolayer, and two hours after Lf pretreatment (pretreated-Lf), the medium was exchanged with a Ce6-AuNP-Lf-containing medium."}, "[4]": {"tested_on": "brain tumor cells (U87MG)", "assay": "Uptake into brain tumor cells (confocal, FACS)", "type": "cell-based, human", "settings": "Ce6 equivalent 2.5 μM, 18 hours", "protocol": "Next, DAPI mounting medium (Vector Laboratories, Inc., Burlingame, Calif., USA) was used and the intracellular Ce6 fluorescence was observed under a confocal microscope (TCS SP5, Leica, Germany).\nMeanwhile, flow cytometry (FACS Calibur™; BD Biosciences, Franklin Lakes, N.J.) was used to quantify the intracellular Ce6 fluorescence. […] After washing three times with PBS, the cells were detached with trypsin/EDTA, centrifuged for 3 minutes at 1000 rpm, and then analyzed with FACS."}, "[5]": {"tested_on": "brain tumor (U87MG) cells", "assay": "Phototherapy of brain tumor cells: viability, Annexin V/PI apoptosis, DCFH-DA ROS", "type": "cell-based, human", "settings": "PDT+PTT, 2.5 minutes each", "protocol": "Cell viability was measured with an EZ-Cytox kit.\nMeanwhile, the intracellular ROS generation by laser irradiation was measured using the fluorescent probe DCFH-DA according to the manufacturer's instructions. Annexin V-DY-634/PI apoptosis was used to evaluate apoptosis. That is, brain tumor (U87MG) cells were suspended in 400 μL binding buffer, and then stained with Annexin V-DY-634 (5 μL) at 2 to 8° C. for 15 minutes. Next, PI (5 μL) was added and the cells were incubated for 5 min. In this case, brain tumor (U87MG) cells were analyzed using FACS."}},
  "data": [
    {"substance": "Chlorin e6 [Ce6]", "values": [
      {"measurement": "surface charge", "setting": "[1]", "result": "−9.4±4.3"},
      {"measurement": "hydrophobicity", "setting": "[2]", "result": "hydrophobic"},
      {"measurement": "Ce6 fluorescence after PDT laser irradiation (photobleaching)", "setting": "[3]", "result": "57.0±5.6", "unit": "%"},
      {"measurement": "transmittance / amount transported across the barrier", "setting": "Caco-2 cell monolayer", "result": "about 47.6%"},
      {"measurement": "amount of uptake into the cells (FACS, intracellular Ce6 fluorescence)", "setting": "[4]", "result": "43.6±2.2"},
      {"measurement": "apoptotic cell population (Annexin-V+/PI+)", "setting": "[5]", "result": 22.0, "unit": "%"}
    ]}
  ]
}
